Earlier results in patent US20220087839A1, “Arterial Drug Eluting Device to Treat Diabetes With Targeted Delivery of Medication” (Becton, Dickinson and Company, priority 2020, published 2022).

Experiments:
glucagon [1] = conditions: intravenous infusion of 25 micrograms per hour, Type 1 diabetic
glucagon [2] = conditions: intravenous infusion of 500 micrograms per hour, Type 1 diabetics
[3] = in vivo
[4] = test system: beta and alpha cells of the pancreas
human alpha-cells = conditions: in vitro

Q: Which “suppression of glucagon spike from a standardized meal” value (glucagon [1]) does the source give for CC[C@H](C)[C@H](NC(=O)[C@@H]1CCCN1C(=O)CNC(=O)[C@H](Cc1ccccc1)NC(=O)[C@H](CC(N)=O)NC(=O)[C@H](CC(N)=O)NC(=O)[C@H](CO)NC(=O)[C@H](CO)NC(=O)[C@H](Cc1c[nH]cn1)NC(=O)[C@@H](NC(=O)[C@H](CC(C)C)NC(=O)[C@H](Cc1ccccc1)NC(=O)[C@H](CC(N)=O)NC(=O)[C@H](C)NC(=O)[C@H](CC(C)C)NC(=O)[C@H](CCCNC(=N)N)NC(=O)[C@H](CCC(N)=O)NC(=O)[C@@H](NC(=O)[C@H](C)NC(=O)[C@@H]1CSSC[C@H](NC(=O)[C@@H](N)CCCCN)C(=O)N[C@@H](CC(N)=O)C(=O)N[C@@H]([C@@H](C)O)C(=O)N[C@@H](C)C(=O)N[C@@H]([C@@H](C)O)C(=O)N1)[C@@H](C)O)C(C)C)C(=O)N[C@@H](CC(C)C)C(=O)N1CCC[C@H]1C(=O)N1CCC[C@H]1C(=O)N[C@H](C(=O)N[C@@H](CC(N)=O)C(=O)N[C@H](C(=O)NCC(=O)N[C@@H](CO)C(=O)N[C@@H](CC(N)=O)C(=O)N[C@H](C(=O)N[C@@H](Cc1ccc(O)cc1)C(N)=O)[C@@H](C)O)C(C)C)[C@@H](C)O [Pramlintide] here?
A: Its value is “could suppress a glucagon spike from a standardized meal”.

Q: What does the source list for somatostatin?
A: suppression of glucagon spikes (glucagon [2]): suppressed glucagon spikes; half life [3]: 3 min; effect on insulin and glucagon release [4]: inhibit both insulin and glucagon release

Q: With leptin as the compound, how does the “concentration that could suppress functional response to glucose” value (human alpha-cells) read?
A: The value was 0.625 nmol/L.
